Experimental data reported in patent publication US6498149B1, “Natural antitumor or antiviral substances and use of the same” (Techno Seven Co., Ltd., priority 1997, dated 2002).

What was measured:
[1] = Physico-chemical properties (solubility, acid/base nature); assay type: physicochemical
[2] = tested on: Molt4 (human T cell leukemia cell line); assay: Suppression of incorporation of 3H-thymidine into / proliferation of the Molt4 cell; assay type: cell-based; details: samples from single HPLC peaks, 7 μg/ml
Procedure: The apoptosis inducing factor (AIF) is produced and released in the supernatant of the NS cell line culture. Thus, the AIF produced by the NS cell was separated and purified by the physico-chemical methods. The activity of AIF was measured by the ability of […] and the DNA fragmentation method. First, the supernatant of the culture of the NS cell line was adsorbed on a C18 column and eluted to separate the AIF. The crude extract was developed on a thin layer chromatography (TLC) plate, and the active fractions were isolated and purified by reverse phase high performance liquid chromatography (HPLC).
The sample lyophilized from 50 ml of the supernatant of the NS cell line culture was subjected to chromatography on a C18 column (BONDELUTE), and the fraction retained in the column was separated and eluted with acetonitrile and methanol, and concentrated to dryness by evaporating the solvents with nitrogen gas.
The fraction was further developed by TLC. That is to say, the solution of the materials separated on the C18 column in chloroform: methanol (1:1) was spotted on a thin layer and developed by chloroform: methanol: distilled water (60:40:8). […]

| SMILES | discrimination of acidic, neutral and basic substances [1] | solubility [1] | suppression of incorporation of 3H-thymidine into the Molt4 cell [2] |
| --- | --- | --- | --- |
| Cc1cn([C@H]2C[C@H](O)[C@@H](CO)O2)c(=O)[nH]c1=O [P4, thymidine] | basic substance | soluble in organic solvents such as methanol, dimethylsulfoxide and in water |  |
| CO[C@@H]1[C@H](O)[C@@H](CO)O[C@H]1n1cnc2c(=O)[nH]c(N)nc21 [P6, 2′-O-methylguanosine] | basic substance | soluble in organic solvents such as methanol, dimethylsulfoxide and in water |  |
| Cc1cn([C@@H]2O[C@H](CO)[C@@H](O)[C@H]2O)c(=O)[nH]c1=O [P2, ribothymidine] | basic substance | soluble in organic solvents such as methanol, dimethylsulfoxide and in water | strong activity |
| CO[C@@H]1[C@H](O)[C@@H](CO)O[C@H]1n1cnc2c(O)ncnc21 [P5, 2′-O-methylinosine] | basic substance | soluble in organic solvents such as methanol, dimethylsulfoxide and in water |  |
